From a compilation of properties of binary mixtures (doi:10.1021/je200600p)

Assay: xn = mol fraction of the nth substance listed
Conditions: 101 kPa

CCCC[n+]1ccn(C)c1.COP(=O)([O-])OC + CCO
viscosity [mPa·s]
Conditions | 293.15 K | 298.15 K | 303.15 K | 308.15 K | 313.15 K | 318.15 K | 323.15 K | 328.15 K | 333.15 K
x2 = 0.201 | 396 | 284 | 210 | – | 119 | 92.7 | 73.3 | 59.06 | 48.16
x2 = 0.399 | – | – | 88.9 | 69.9 | – | – | – | – | –
x2 = 0.6 | 42.1 | 34.3 | 28.18 | 23.56 | 19.87 | 16.97 | 14.59 | 12.66 | 11.06
x2 = 0.8 | 8.84 | 7.704 | 6.718 | – | – | 4.711 | – | – | 3.454

CC[n+]1ccn(C)c1.COP(=O)([O-])OC + CCO
viscosity [mPa·s]
Conditions | 293.15 K | 298.15 K | 303.15 K | 308.15 K | 313.15 K | 318.15 K | 323.15 K | 328.15 K | 333.15 K
x2 = 0.199 | 190.6 | 142.7 | 109.5 | 85.8 | 68.4 | 55.53 | 45.75 | – | 32.27
x2 = 0.398 | 87.3 | – | – | 45 | 37.37 | – | 26.44 | 22.64 | 19.56
x2 = 0.598 | 27.63 | – | 19.83 | 17.05 | 14.8 | – | 11.36 | 10.04 | 8.951
x2 = 0.798 | 6.898 | 6.127 | 5.471 | – | 4.425 | 4.004 | 3.634 | 3.318 | 3.037

CCCC[n+]1ccn(C)c1.COP(=O)([O-])OC + CO
viscosity [mPa·s]
Conditions | 293.15 K | 298.15 K | 303.15 K | 308.15 K | 313.15 K | 318.15 K | 323.15 K | 328.15 K | 333.15 K
x2 = 0.203 | 395 | 282 | 206 | 154.4 | 117.9 | 91.5 | 72.5 | 58.3 | 47.6
x2 = 0.404 | 150.1 | 113.3 | 87.5 | – | 54.86 | – | 36.49 | 30.37 | 25.51
x2 = 0.6 | 38.6 | 31.59 | 26.19 | 21.99 | 18.59 | 15.94 | 13.78 | 11.99 | 10.48
x2 = 0.8 | – | 6.267 | 5.536 | 4.923 | – | 3.972 | 3.665 | 3.338 | 3.051
